Target: Human CYP17 enzyme (Cytochrome P450, 17-20 lyase) (Homo sapiens (Human), UniProt P05093)
Test: CYP17 lyase assay, recombinant human CYP17 enzyme, 17-α-hydroxy pregnenolone [21-3H] substrate
Type: biochemical
Conditions: recombinant human CYP17, first value of Human/Rat cell; read-out: Lyase IC 50 Human
Text: 1) Cvtochrome P450, 17-20 Lyase (CYP17-Lyase) Assay Development Using Recombinant Human CYP17 Enzyme and 17-α-Hydroxy Pregnenolone [21-3H] as the Substrate
Cytochrome P450, 17-α-Hydroxylase, 17-20 lyase (CYP17) is a multi functional enzyme that plays a key role in the biosynthesis of steroid hormones. […] In the hydroxylation reaction, it converts progesterone and pregnenolone to the corresponding hydroxylated products 17-α-hydroxy progesterone and 17-α-hydroxy pregnenolone. In the lyase reaction, it catalyzes the conversion of these hydroxylated substrates to Androstenedione and Dehydroepiandrosterone (DHEA) respectively. In the Cyp17 lyase assay described here, the conversion of 17-α-hydroxy pregnenolone to Dehydroepiandrosterone and acetic acid is being monitored.
The conversion of 17-α-hydroxy pregnenolone to Dehydroepiandrosterone is accompanied by the release of acetic acid. In the Cyp17 lyase assay, 17-α-hydroxy pregnenolone labeled with tritium (3H) at position 21 is used as the substrate. Chloroform extraction removes the radioactive steroids and acetic acid is taken into aqueous layer. The tritiated acetic acid released in the assay thus extracted is quantified to determine the enzyme activity.
Human Cyp 17 gene was cloned and expressed in Adenoviral expression system in A549 cell lines. The purified cell membrane preparations were used as the source for Human CYP17 enzyme. Total protein concentration: 8 mg/mL.
For routine screening, the assay was set up with 16 μg of enzyme in 50 μL reaction volume. 17α-hydroxy pregnenolone [21-3H] was added to a final concentration of […] NADPH is used at a final concentration of 4.2 mM. Total reaction volume was made up to 50 μL with 50 mM Phosphate buffer pH 7.5. The reaction mixture was incubated at room temperature for 90 minutes with gentle shaking. The reaction was stopped by the addition of 100 μl, of buffer. 500 μl, of 5% freshly prepared activated charcoal was added to the solution and mixed well by vortexing. The samples were centrifuged at 17568×g for 5 minutes. (14000 rpm). The supernatant was carefully transferred to fresh tube and 1.3 mL of scintillation fluid was added, mixed by vortexing.
The measurements were carried out in 2.0 mL Eppendorf™ tubes. Each tube was counted for 1 minute. The amount of tritiated acetic acid released is proportional to the lyase activity. Percent lyase activity in presence of inhibitor was calculated using the formula given below.
[formula] Sample: Enzyme reaction in presence of inhibitor. Positive control: Enzyme reaction without inhibitor but containing DMSO at 1% final concentration. Blank—Contains all reagents except enzyme. % Inhibition=100%−% Lyase activity
For IC50 determination, the % inhibition was plotted as a function of inhibitor concentration. The data was fitted to sigmoidal equation using Graphpad Prism® software IV to generate IC50 values.

Sequence of Human CYP17 enzyme (Cytochrome P450, 17-20 lyase) (P05093 whole entry): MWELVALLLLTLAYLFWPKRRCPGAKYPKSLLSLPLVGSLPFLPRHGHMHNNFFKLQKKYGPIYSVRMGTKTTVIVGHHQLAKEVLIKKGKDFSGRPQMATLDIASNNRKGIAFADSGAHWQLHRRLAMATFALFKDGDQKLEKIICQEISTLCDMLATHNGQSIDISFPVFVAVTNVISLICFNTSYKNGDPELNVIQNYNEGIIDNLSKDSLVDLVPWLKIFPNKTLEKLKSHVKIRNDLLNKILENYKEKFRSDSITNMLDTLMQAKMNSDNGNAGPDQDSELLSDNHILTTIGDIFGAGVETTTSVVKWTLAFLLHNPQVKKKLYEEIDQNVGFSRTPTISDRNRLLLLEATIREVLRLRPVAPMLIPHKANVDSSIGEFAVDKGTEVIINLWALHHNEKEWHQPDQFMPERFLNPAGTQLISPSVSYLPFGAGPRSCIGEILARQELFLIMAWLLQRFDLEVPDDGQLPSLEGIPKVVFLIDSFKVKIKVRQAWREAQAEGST

Going from O=C1N(c2ccc3ccccc3c2)CCN1c1cnccc1C1CC1 [Example 3A, 1-(4-cyclopropylpyridin-3-yl)-3-(naphthalen-2-yl)imidazolidin-2-one] to O=C1N(c2ccc3sccc3c2)CCN1c1cnccc1C1CC1 [Example 4A, 1-(benzo[b]thiophen-5-yl)-3-(4-cyclopropylpyridin-3-yl)imidazolidin-2-one], the IC50 falls from 26 nM to 13 nM (2-fold).

Going from O=C1N(c2cccc(C(F)(F)F)c2)CCN1c1cnccc1C1CC1 [Example 5A, 1-(4-cyclopropylpyridin-3-yl)-3-(3-(trifluoromethyl)phenyl)imidazolidin-2-one] to O=C1N(c2cc(C(F)(F)F)ccn2)CCN1c1cnccc1C1CC1 [Example 8A, 1-(4-cyclopropylpyridin-3-yl)-3-(4-(trifluoromethyl)pyridin-2-yl)imidazolidin-2-one], the IC50 rises from 6 nM to 22 nM (3.7-fold). The first is the more potent here.

Going from O=C1N(c2cc3ccccc3s2)CCN1c1cnccc1C1CC1 [Example 6A, 1-(benzo[b]thiophen-2-yl)-3-(4-cyclopropylpyridin-3-yl)imidazolidin-2-one] to O=C1N(c2cc3cc(F)ccc3s2)CCN1c1cnccc1C1CC1 [Example 22A, 1-(4-cyclopropylpyridin-3-yl)-3-(5-fluorobenzo[b]thiophen-2-yl)imidazolidin-2-one], the IC50 falls from 13 nM to 7 nM (1.9-fold). The second is the more potent here.

Going from Cc1nc(Cl)cc(N2CCN(c3cnccc3C3CC3)C2=O)n1 [Example 7A, 1-(6-chloro-2-methylpyrimidin-4-yl)-3-(4-cyclopropylpyridin-3-yl)imidazolidin-2-one] to O=C1N(c2cc(Cl)ncn2)CCN1c1cnccc1C1CC1 [Example 10A, 1-(6-chloropyrimidin-4-yl)-3-(4-cyclopropylpyridin-3-yl)imidazolidin-2-one], the IC50 rises from 41 nM to 121 nM (3-fold).

First: O=C1N(c2ccnc(C(F)(F)F)n2)CCN1c1cnccc1C1CC1 [Example 12A, 1-(4-cyclopropylpyridin-3-yl)-3-(2-(trifluoromethyl)pyrimidin-4-yl)imidazolidin-2-one]
Second: O=C1N(c2cc(Cl)nc(C(F)(F)F)c2)CCN1c1cnccc1C1CC1 [Example 37A, 1-(2-chloro-6-(trifluoromethyl)pyridin-4-yl)-3-(4-cyclopropylpyridin-3-yl)imidazolidin-2-one]
The IC50 of the first is 20-fold higher: 99 nM for the first, 5 nM for the second.

First: O=C1N(c2ccc3scc(C(F)(F)F)c3c2)CCN1c1cnccc1C1CC1 [Example 13A, 1-(4-cyclopropylpyridin-3-yl)-3-(3-(trifluoromethyl)benzo[b]thiophen-5-yl)imidazolidin-2-one]
Second: O=C1N(c2ccc3c(C(F)(F)F)csc3c2)CCN1c1cnccc1C1CC1 [Example 23A, 1-(4-cyclopropylpyridin-3-yl)-3-(3-(trifluoromethyl)benzo[b]thiophen-6-yl)imidazolidin-2-one]
The IC50 of the first is 110-fold lower: 11 nM for the first, 1210 nM for the second. The first is the more potent here.

O=C1N(c2ccc3sc(F)cc3c2)CCN1c1cnccc1C1CC1 [Example 14A, 1-(4-cyclopropylpyridin-3-yl)-3-(2-fluorobenzo[b]thiophen-5-yl)imidazolidin-2-one] and O=C1N(c2ccc3cc(F)sc3c2)CCN1c1cnccc1C1CC1 [Example 25A, 1-(4-cyclopropyl-pyridin-3-yl)-3-(2-fluoro-benzo(b)thiophene-6-yl)imidazolidin-2-one] are within 1.5-fold of each other in IC50: 26 nM for the first, 30 nM for the second.

Compared with Cc1csc2ccc(N3CCN(c4cnccc4C4CC4)C3=O)cc12 [Example 15A, 1-(4-cyclopropylpyridin-3-yl)-3-(3-methylbenzo[b]thiophen-5-yl)imidazolidin-2-one], Cc1csc2cc(N3CCN(c4cnccc4C4CC4)C3=O)ccc12 [Example 18A, 1-(4-cyclopropylpyridin-3-yl)-3-(3-methylbenzo[b]thiophen-6-yl)imidazolidin-2-one] is 11-fold higher in IC50: 6.7 nM for the first, 76 nM for the second. The first is the more potent here.

O=C1N(c2ccc3ccsc3c2)CCN1c1cnccc1C1CC1 [Example 16A, 1-(benzo[b]thiophen-6-yl)-3-(4-cyclopropylpyridin-3-yl)imidazolidin-2-one] and O=C1N(c2cc(F)c3ccsc3c2)CCN1c1cnccc1C1CC1 [Example 26A, 1-(4-cyclopropyl-pyridin-3-yl)-3-(4-fluoro-benzo[b]thiophen-6-yl)imidazolidin-2-one] are within 1.5-fold of each other in IC50: 7 nM for the first, 6 nM for the second.

First: O=C1N(c2ccc3c(c2)OC(F)(F)O3)CCN1c1cnccc1C1CC1 [Example 17A, 1-(4-cyclopropylpyridin-3-yl)-3-(2,2-difluorobenzo[d][1,3]dioxol-5-yl)imidazolidin-2-one]
Second: Cc1c(F)sc2ccc(N3CCN(c4cnccc4C4CC4)C3=O)cc12 [Example 24A, 1-(4-Cyclopropyl-pyridin-3-yl)-3-(2-fluoro-3-methylbenzo[b]thiophen-5-yl)-imidazolidin-2-one]
The IC50 of the first is 3.1-fold higher: 58 nM for the first, 19 nM for the second.

First: Cc1coc2ccc(N3CCN(c4cnccc4C4CC4)C3=O)cc12 [Example 19A, 1-(4-cyclopropylpyridin-3-yl)-3-(3-methylbenzofuran-5-yl)imidazolidin-2-one]
Second: O=C1N(c2ccc3sc(Cl)cc3c2)CCN1c1cnccc1C1CC1 [Example 20A, 1-(2-chlorobenzo[b]thiophen-5-yl)-3-(4-cyclopropylpyridin-3-yl)imidazolidin-2-one]
The IC50 of the first is 39-fold lower: 2.7 nM for the first, 106 nM for the second. The first is the more potent here.

O=C1N(c2ccc3c(c2)CCC3)CCN1c1cnccc1C1CC1 [Example 21A, 1-(4-cyclopropylpyridin-3-yl)-3-(2,3-dihydro-1H-inden-5-yl)imidazolidin-2-one] and O=C1N(c2ccnc(Cl)c2)CCN1c1cnccc1C1CCCC1 [Example 34A, 1-(2-chloropyridin-4-yl)-3-(4-cyclopentyl-pyridin-3-yl)-imidazolidin-2-one] are within 1.5-fold of each other in IC50: 17 nM for the first, 13 nM for the second.

O=C1N(c2cc3sccc3cc2F)CCN1c1cnccc1C1CC1 [Example 27A, 1-(4-cyclopropyl-pyridin-3-yl)-3-(5-fluoro-benzo[b]thiophen-6-yl)imidazolidin-2-one] and O=C1N(c2cc3ccsc3cc2F)CCN1c1cnccc1C1CC1 [Example 28A, 1-(4-cyclopropylpyridin-3-yl)-3-(6-fluorobenzo[b]thiophen-5-yl)imidazolidin-2-one] are within 1.5-fold of each other in IC50: 461 nM for the first, 548 nM for the second.

First: O=C1N(c2ccnc(Cl)c2)[C@@H]2C[C@@H]2N1c1cnccc1C1CC1 [Example 30A-I, (1R,5S)-2-(2-chloropyridin-4-yl)-4-(4-cyclopropylpyridin-3-yl)-2,4-diazabicyclo[3.1.0]hexan-3-one]
Second: O=C1N(c2cnccc2C2CC2)[C@@H]2C[C@@H]2N1c1ccnc(Cl)c1 [Example 30A-II, (1S,5R)-2-(2-chloropyridin-4-yl)-4-(4-cyclopropylpyridin-3-yl)-2,4-diazabicyclo[3.1.0]hexan-3-one]
The IC50 of the first is 27-fold higher: 161 nM for the first, 6 nM for the second. The second is the more potent here.

Compared with COc1cc(N2C(=O)N(c3cnccc3C3CC3)[C@H]3C[C@H]32)ccn1 [Example 31A-1, (1S,5R)-2-(4-cyclopropylpyridin-3-yl)-4-(2-methoxypyridin-4-yl)-2,4-diazabicyclo[3.1.0]hexan-3-one], COc1cc(N2C(=O)N(c3cnccc3C3CC3)[C@@H]3C[C@@H]32)ccn1 [Example 31A-II, (1R,5S)-2-(4-cyclopropylpyridin-3-yl)-4-(2-methoxypyridin-4-yl)-2,4-diazabicyclo[3.1.0]hexan-3-one] is 14-fold lower in IC50: 169 nM for the first, 12 nM for the second.

First: O=C1N(c2ccnc(C(F)(F)F)c2)[C@@H]2C[C@@H]2N1c1cnccc1C1CC1 [Example 32A-I, (1S,5R)-2-(4-cyclopropylpyridin-3-yl)-4-(2-(trifluoromethyl)pyridin-4-yl)-2,4-diazabicyclo[3.1.0]hexan-3-one]
Second: O=C1N(c2cc(C3CC3)ncn2)CCN1c1cnccc1C1CC1 [Example 38A, 1-(4-cyclopropylpyridin-3-yl)-3-(6-cyclopropylpyrimidin-4-yl)imidazolidin-2-one]
The IC50 of the first is 3.8-fold higher: 184 nM for the first, 48 nM for the second. The second is the more potent here.

Going from O=C1N(c2ccnc(Cl)c2)CCN1c1cnccc1C1(O)CCC1 [Example 33A, 1-(2-chloro-pyridin-4-yl)-3-[4-(1-hydroxy-cyclobutyl)-pyridin-3-yl]imidazolidin-2-one] to O=C1N(c2ccnc(Cl)c2)CCN1c1cnccc1C1(O)CCCC1 [Example 35A, 1-(2-chloropyridin-4-yl)-3-[4-(1-hydroxycyclopentyl)-pyridin-3-yl]-imidazolidin-2-one], the IC50 rises from 45 nM to 341 nM (7.6-fold). The first is the more potent here.

O=C1N(c2cccc(C(F)(F)F)c2)CCN1c1cnccc1C1(O)CC1 [Example 36A, 1-[4-(1-hydroxy-cyclopropyl)-pyridin-3-yl]-3-(3-trifluoromethyl-phenyl)-imidazolidin-2-one] was tested, and the IC50 was 27 nM.

— US9029399B2, “17α-hydroxylase/C17,20-lyase inhibitors” (Novartis AG, priority 2011, dated 2015)
